Paper PMC12455130, “Multifunctional molecular agent for tau-targeted combinational therapy of Alzheimer’s disease” (The Journal of Biological Chemistry, 2025)
Entries after “also recorded” stand apart in the source; their conditions may differ.

What was measured:
tau peptide R3 = target: T1, tau peptide R3 (Homo sapiens, UniProt P10636); experiment: Endogenous (tyrosine) fluorescence quenching of tau peptide R3; type: binding; settings: for n (binding sites): Hill equation
T1 construct: R3 (^306VQIVYK PVDLSK VTSKCG SLGNIH HKPGGG Q^336) and rabbit anti-tau antibody were purchased from MuJin; purchased MuJin
Method: The affinity of the synthetic compounds toward tau peptide was evaluated by endogenous fluorescence quenching experiment. The N-galloyl-substituted azacrown (ligand) can quench the endogenous fluorescence of tyrosine residues (306–310, VQIVY) on R3 peptide chain (receptor), if there exists a definite interaction between the ligand and the receptor. With titration of 4GA or 2GA (ligands) into the solution of tau peptide R3 (receptors), the endogenous fluorescence (at 310 nm) of tyrosine residues on R3 peptide chain was gradually quenched (data provided in ESI, Fig. S11). The data were then fitted by the Stern−Volmer formula to give the quenching constants (Kb) (Fig. S12). The quenching constants (Kb) and binding sites (n) of 4GA or 2GA to R3 peptide in the temperatures 25 °C and 37 °C are presented in Table 1.
The structural changes of R3 protein upon binding to 4GA/2GA/GA was documented by fluorescence spectroscopy. Briefly, various concentrations of 4GA/2GA/GA (0, 5, 10, 15, 20, 30, 40, 60, or 80 μM) were added to the 15 μM R3 protein in 50 mM Tris–HCl buffer (pH 7.4) in a 10-mm quartz cuvette. The measurement was carried out by Hitachi F-7000 equipped with a circulating water bath at 25 and 37 °C. The fluorescence spectra of R3 protein were documented from 290 nm to 380 nm with 275 nm excitation. The widths of excitation and emission slit were set at 5 and 10 nm, respectively.
The Stern–Volmer (Formula 4.1) was used to determine the quenching mechanism, either static or dynamic quenching:(4.1) F0/F=1+KSV[Q] where F0 and F are the fluorescence intensity without and with quencher, [Q] means the concentration of quencher, and Ksv is the Stern–Volmer constant.
Furthermore, the binding constant (Kb) and number of the binding sites (n) of quencher on R3 protein could be calculated by Hill (Equation 4.2):(4.2) log[F0−F/F]=logKb+nlog[Q]
The tyrosine fluorescence quenching experiment was carried out to determine the binding ability between inhibitors and R3 protein. […] Furthermore, this experiment is reasonable given the relatively weak fluorescence intensity of 4GA, 2GA, and GA (Figure S10). With titration of inhibitors into the solution of R3 protein, the fluorescence of tyrosine residues was gradually quenched in two temperatures of 25°C and 37°C, implying that 4GA or 2GA can interact with R3.
Fluorescence quenching usually proceeds through either dynamic quenching or static quenching. Dynamic quenching refers to the contact process between excited fluorophore and quencher, while static quenching refers to the formation of fluorophore-quencher complexes. A series of data processing about the fluorescence change of tyrosine residues at 25°C and 37°C was utilized to figure out the binding constant. Compared to the standard Stern-Volmer curves, a minor positive deviation from linearity was observed by plotting F0/F versus concentration, indicating a mixture of dynamic and static patterns (Figure S11). Furthermore, the Hill equation was used to calculate the quenching constant and binding sites of inhibitors on R3 protein (Figure S12).

R3 fibrils = target: T2, R3 fibrils (Homo sapiens, UniProt P10636); experiment: TEM of Cu2+-promoted R3 fibrils; type: biochemical; settings: R3 15 μM, Cu2+ 3.8 μM, heparin 3.8 μM, compound 10 μM, Hepes pH 7.4
T2 construct: R3 (^306VQIVYK PVDLSK VTSKCG SLGNIH HKPGGG Q^336) and rabbit anti-tau antibody were purchased from MuJin; purchased MuJin
Method: However, the influence of 4ME or GA on Cu^2+-promoted R3 aggregation was small, because these compounds could only suppress Cu^2+ promotion effect; their effect on R3 self-aggregation was almost negligible.
For detecting the inhibitory efficiency of inhibitors, 15 μM R3, 3.8 μM heparin, and 4GA/2GA/4ME/GA (0, 10, and 40 μM) in 50 mM Tris–HCl buffer (pH 7.4) was incubated at 37 °C for 3 h, respectively. For exploring the effect of Cu^2+ on R3 aggregation, 15 μM R3, 3.8 μM heparin was mixed in the presence or the absence of 3.8 μM Cu^2+ in 50 mM Hepes buffer (pH 7.4). Then, 10 μM 4GA/2GA/4ME/GA was added to the solution. After 3 h incubation, 10 μl of each solution was applied on a carbon support membrane, followed by 10 μl of 2% uranyl acetate, and dried at room temperature. The operation was carried out on transmission electron microscope (JEM-2100, provieded by JEOL).

[1] = system: tau-infected SK-N-SH cells; experiment: Immunofluorescence / ThS staining of intracellular tau aggregation; type: cell-based, human; settings: 1.5 μM R3 aggregates, 10 μM inhibitor; for fluorescence intensity of ThS against the control group: ImageJ
Method: The red fluorescence of antitau antibody (Cy3-AB) staining marked for Pan Tau protein. […] Finally, the fluorescence intensity was quantitatively analyzed via ImageJ (National Institutes of Health).
Figure 8 Confocal laser scanning microscopy images of SK-N-SH cells incubated with R3 aggregates and different inhibitors. 2-(4-Amidinophenyl)-6-indolecarbamidine dihydrochloride (DAPI) for nuclei staining (blue); Thioflavin S (ThS) for aggregated Tau protein (green); Cy3 marked anti-Tau antibody (Cy3-AB) for Pan Tau protein (all conformations of Tau) (red). Concentrations of R3 aggregates and inhibitors are 1.5 μM and 10 μM, respectively. Scale bar represents 25 μm.
Tau-infected pathological model cell lines were constructed by human neuroblastoma SK-N-SH cells using R3 aggregates as inducer, referring our earlier article ([28]). R3 aggregates were obtained from coincubation of 15 μM R3 peptide with 3.8 μM heparin in PBS at 37 °C for 4 h. Then, the solution was diluted to 1.5 μM in the culture medium. SK-N-SH cells were seeded onto 24-well plates (1 × 10^5/well) for 24 h. Then, 10 μM of different compounds (inhibitors) per well was added and incubated for 2 h. After changing the culture medium, these cells were treated with 1.5 μM R3 aggregates for 12 h and then further continued incubation for 12 h.
The samples were successively treated with 4% paraformaldehyde and 0.1% Triton X-100 for 15 min each and washed three times with PBS. Blocked with 5% goat serum for 30 min, the samples were incubated with rabbit anti-Tau antibody (1:200 dilution) at 4 °C for 24 h and washed three times with PBS. Then they were incubated with Cy3-conjugated Donkey Anti-Rabbit IgG (1:1000 dilution) at 37 °C for 1 h and washed three times with PBS. Subsequently, 60 μM ThS was added to stain tau aggregates for 15 min and washed three times with PBS. Finally, cells were stained with 2-(4-amidinophenyl)-6-indolecarbamidine dihydrochloride (0.02%) for 5 min to staining nuclei and washed three times with PBS. The antifade mounting medium was used for cell slides to ensure fluorescence. The fluorescence signals were monitored using a CLSM (Leica TCS SP8).
Fig. S16 Quantitatively analysis of the fluorescence intensity in the Confocal laser scanning microscopy images ([…]) of SK-N-SH cells incubated with R3, heparin and different inhibitors by ImageJ software. Florescence intensity per cell (n = 8), analyzed by ImageJ software.

T1 sequence (P10636 623-653 limits assumed): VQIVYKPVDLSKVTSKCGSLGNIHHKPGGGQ
T2 sequence (P10636 623-653 limits assumed): as above

| SMILES | n (binding sites) (tau peptide R3; 25 °C) | n (binding sites) (tau peptide R3; 37 °C) | morphology of Cu2+-promoted R3 fibrils (TEM) (R3 fibrils) | intracellular tau aggregation (ThS green fluorescence, CLSM) [1] | fluorescence intensity of ThS against the control group [1] [%] | binding ability / interaction with R3 (tau peptide R3; 25 °C and 37 °C) |
| --- | --- | --- | --- | --- | --- | --- |
| O=C(c1cc(O)c(O)c(O)c1)N1CCN(C(=O)c2cc(O)c(O)c(O)c2)CCN(C(=O)c2cc(O)c(O)c(O)c2)CCN(C(=O)c2cc(O)c(O)c(O)c2)CC1 [4GA, (1,4,7,10-tetraazacyclododecane-1,4,7,10-tetrayl)tetrakis((3,4,5-trihydroxyphenyl)methanone)] | 1.33 ± 0.05 | 1.54 ± 0.07 | the resulting filaments become sparse and small | the green fluorescence disappeared | 3.3 |  |
| CN1CCN(C)CCN(C)CCN(C)CC1 [4ME, 1,4,7,10-tetramethyl-1,4,7,10-tetraazacyclododecane, reference compound] |  |  | small | slight inhibitory efficiency |  |  |
| CN1CCN(C(=O)c2cc(O)c(O)c(O)c2)CCN(C)CCN(C(=O)c2cc(O)c(O)c(O)c2)CC1 [2GA, (4,10-dimethyl-1,4,7,10-tetraazacyclododecane-1,7-diyl)bis((3,4,5-trihydroxyphenyl)methanone)] | 1.14 ± 0.05 | 1.32 ± 0.04 | the resulting filaments become sparse and small | the green fluorescence disappeared | 4.6 |  |
| O=C(O)c1cc(O)c(O)c(O)c1 [GA, gallic acid, reference compound] |  |  | small | slight inhibitory efficiency |  | no significant interaction between GA and R3; also recorded: negligible binding ability |
